For data set [1], the target named is T1, human amylin 3(a) receptor (human calcitonin receptor + RAMP-3) in BHK570 cells (Homo sapiens, UniProt O60896+P30988).
T1 construct: expressed in transfected cells
Description: ASSAY (II)a functional assay, human amylin receptor (CRE luciferase). The class given is cell-based. The following applies: for EC50: human amylin receptor functional potency, assay (II), read-out: hAmylin-R funct. EC50. Summed up: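 Readout is luminescence from a cAMP-responsive CRE-luc reporter, developed with LucLite for 30 min at room temperature. Cells were treated for 3 h at 37 °C in 10% FBS/DMEM buffered with 10 mM Hepes (pH 7.4).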

Data set [2] can be described thus: ASSAY (IV) determination of solubility. Format: physicochemical. Summed up: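 Solubility measured by UPLC of supernatant after centrifugation, following 18 h at room temperature. Peptide ([…] in water) was diluted 1:1 into 100 mM glycylglycine (pH 3.0, 4.0, 5.0) or bistrispropane (pH 6.0-8.0).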
For data set [3], the target named is T2, human amylin receptor (membranes from Amylin 3(a)/CRE-luc cells) (Homo sapiens, UniProt O60896+P30988).
T2 construct: expressed in transfected cells
T2 sequence (P30988 25-474): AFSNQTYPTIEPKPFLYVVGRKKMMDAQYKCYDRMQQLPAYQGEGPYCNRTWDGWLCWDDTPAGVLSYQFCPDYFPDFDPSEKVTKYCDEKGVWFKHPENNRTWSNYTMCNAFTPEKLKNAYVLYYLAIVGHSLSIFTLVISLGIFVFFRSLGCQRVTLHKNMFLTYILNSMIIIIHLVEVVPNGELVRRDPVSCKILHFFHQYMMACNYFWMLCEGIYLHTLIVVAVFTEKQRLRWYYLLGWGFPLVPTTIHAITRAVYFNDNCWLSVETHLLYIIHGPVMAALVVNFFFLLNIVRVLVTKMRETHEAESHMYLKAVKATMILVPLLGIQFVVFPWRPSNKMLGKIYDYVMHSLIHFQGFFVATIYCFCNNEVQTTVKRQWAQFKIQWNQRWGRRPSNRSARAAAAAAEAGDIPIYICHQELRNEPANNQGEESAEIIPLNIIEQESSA
T2 sequence (O60896 24-148 partner): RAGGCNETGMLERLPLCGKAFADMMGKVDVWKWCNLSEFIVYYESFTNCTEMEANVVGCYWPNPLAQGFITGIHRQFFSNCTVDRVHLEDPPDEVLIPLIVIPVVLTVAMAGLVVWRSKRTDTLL
Description: ASSAY (V) binding to the human amylin receptor (SPA, 125I-rat amylin).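 As to all read-outs here: competition binding of cell membranes (35 ng/µL) mixed with SPA beads in 384-well plates at 40 µL total volume, read by scintillation counting.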 The following applies: for IC50: Table 4, read-out: hAmylin-R bind IC50.

[4] abbreviates: hCTR funct. EC50 divided by hAmylin-R funct. EC50.
The mark [5] stands for this setting: hCTR funct. EC50 over hAmylin-R funct. EC50.
Setting [6] is: human functional selectivity: hCTR funct. EC50 / hAmylin-R funct. EC50.
Where [7] appears, read: bistrispropane buffer, pH 6.5, read-out: Solubility pH 6.5 Concentration.
The mark [8] stands for this setting: bistrispropane buffer, pH 7.5, read-out: Solubility pH 7.5 Concentration.
Setting [9] is: bistrispropane buffer, pH 6.0, read-out: Solubility pH 6.0 Concentration.
Where [10] appears, read: bistrispropane buffer, pH 7.0, read-out: Solubility pH 7.0 Concentration.
Setting [11] is: bistrispropane buffer, pH 8.0, read-out: Solubility pH 8.0 Concentration.
[12] abbreviates: glycylglycine buffer, pH 3.0, read-out: Solubility pH 3.0 Concentration.
The mark [13] stands for this setting: glycylglycine buffer, pH 4.0, read-out: Solubility pH 4.0 Concentration.
The mark [14] stands for this setting: glycylglycine buffer, pH 5.0, read-out: Solubility pH 5.0 Concentration.
[15] abbreviates: Table 5, selectivity, hCTR bind IC50 / hAmylin-R bind IC50.
Setting [16] is: Table 5a, selectivity, hCTR bind IC50 / hAmylin-R bind IC50.
[17] abbreviates: Table 7, human binding selectivity, included for comparison.
Where [18] appears, read: Table 7a (preferred compounds), human binding selectivity, included for comparison.
Where [19] appears, read: ratio of human calcitonin receptor binding IC50 to human amylin receptor binding IC50.
Setting [20] is: Table 5b, selectivity, hCTR bind IC50 / hAmylin-R bind IC50.
[21] abbreviates: Table 5c, selectivity, hCTR bind IC50 / hAmylin-R bind IC50.

Converted amounts (≈) assume the structure as drawn. Like-named read-outs stand apart in the source and are kept apart here. Numbered stars: 1 amine (or outer) side, 2 acyl side, 3 side chain; on linkers, the order of the positions; unused ones are H or OH. Bridge positions count the residues as written; N and C are the ends. Side chains are listed from the residue outwards. Peptide text beside a SMILES is read from it. * marks the point of attachment. C20 diacid = O=C(O)CCCCCCCCCCCCCCCCCCC(=O)*; γGlu = O=C(O)[C@H](CCC(=O)[*:2])N[*:1]; AEEA = NCCOCCOCC(=O)O Some results are limits rather than exact numbers.

For `CC[C@H](C)[C@H](NC(=O)[C@H](C)NC(=O)CNC(=O)[C@H](Cc1ccccc1)NC(=O)[C@H](CC(N)=O)NC(=O)[C@@H]1CCCN1C(=O)[C@H](CO)NC(=O)[C@H](CO)NC(=O)[C@H](Cc1c[nH]cn1)NC(=O)[C@H](CCCNC(=N)N)NC(=O)[C@H](CC(C)C)NC(=O)[C@H](Cc1ccccc1)NC(=O)[C@H](CC(N)=O)NC(=O)[C@H](C)NC(=O)[C@H](CC(C)C)NC(=O)[C@H](CCCNC(=N)N)NC(=O)[C@H](CCC(N)=O)NC(=O)[C@@H](NC(=O)[C@H](C)NC(=O)[C@@H]1CSSC[C@H](NC(=O)[C@@H](N)CCCCNC(=O)COCCOCCNC(=O)CC[C@H](NC(=O)CCCCCCCCCCCCCCCCCCC(=O)O)C(=O)O)C(=O)N[C@@H](CC(N)=O)C(=O)N[C@@H]([C@@H](C)O)C(=O)N[C@@H](C)C(=O)N[C@@H]([C@@H](C)O)C(=O)N1)[C@@H](C)O)C(=O)N1CCC[C@H]1C(=O)N[C@@H](CO)C(=O)N[C@@H](CO)C(=O)N[C@H](C(=O)N1CCC[C@H]1C(=O)N[C@H](C(=O)NCC(=O)N[C@@H](CO)C(=O)N[C@@H](CC(N)=O)C(=O)N[C@H](C(=O)N[C@@H](Cc1ccc(O)cc1)C(N)=O)[C@@H](C)O)C(C)C)[C@@H](C)O` [Example 49], the “Ratio hCT/hAmylin funct.” value in data set [1] (setting [4]), in data set [1] (setting [5]) and in data set [1] (setting [6]) was 22.5 throughout. Moreover, the solubility at 18 h in data set [2] (setting [7]), in data set [2] (setting [8]), in data set [2] (setting [9]), in data set [2] (setting [10]), in data set [2] (setting [11]) and in data set [2] (setting [12]) was at least 200 µM in each case. Further, the solubility at 18 h in data set [2] (setting [13]) and in data set [2] (setting [14]) was at least 200 µM in each case. Moreover, the “Ratio hCT/hAmylin binding” value in data set [3] (setting [15]), in data set [3] (setting [16]), in data set [3] (setting [17]), in data set [3] (setting [18]) and in data set [3] (setting [19]) was 10.8 in each case.

In the case of `CC[C@H](C)[C@H](NC(=O)[C@H](C)NC(=O)CNC(=O)[C@H](Cc1ccccc1)NC(=O)[C@H](CC(N)=O)NC(=O)[C@@H]1CCCN1C(=O)[C@H](CO)NC(=O)[C@H](CO)NC(=O)[C@H](Cc1c[nH]cn1)NC(=O)[C@H](CCCNC(=N)N)NC(=O)[C@H](CC(C)C)NC(=O)[C@H](Cc1ccccc1)NC(=O)[C@H](CC(N)=O)NC(=O)[C@H](C)NC(=O)[C@H](CC(C)C)NC(=O)[C@H](CCCNC(=N)N)NC(=O)[C@H](CCC(N)=O)NC(=O)[C@@H](NC(=O)[C@H](C)NC(=O)[C@@H]1CSSC[C@H](NC(=O)[C@@H](N)CCCCNC(=O)COCCOCCNC(=O)CC[C@H](NC(=O)CCCCCCCCCCCCCCCCCCC(=O)O)C(=O)O)C(=O)N[C@@H](CC(N)=O)C(=O)N[C@@H]([C@@H](C)O)C(=O)N[C@@H](C)C(=O)N[C@@H]([C@@H](C)O)C(=O)N1)[C@@H](C)O)C(=O)N1CCC[C@H]1C(=O)N1CCC[C@H]1C(=O)N[C@@H](CO)C(=O)N[C@H](C(=O)N[C@@H](CC(N)=O)C(=O)N[C@H](C(=O)NCC(=O)N1CCC[C@H]1C(=O)N[C@@H](CC(N)=O)C(=O)N[C@H](C(=O)N[C@@H](Cc1ccc(O)cc1)C(N)=O)[C@@H](C)O)C(C)C)[C@@H](C)O` [Example 55] (H-K([AEEA-γGlu-C20 diacid])CNTATCATQRLANFLRHSSPNFGAIPPSTNVGPNTY-NH2; disulfide 2-7; N-terminus assumed), the “Ratio hCT/hAmylin funct.” value in data set [1] (setting [4]), in data set [1] (setting [5]) and in data set [1] (setting [6]) was 10.8 each time. The EC50 (in general, the concentration at which the effect is half-maximal) in data set [1] was found to be 0.068 nM. In addition, the solubility at 18 h is at least 200 µM in data set [2] (setting [7]); at least 200 µM in data set [2] (setting [8]); at least 200 µM in data set [2] (setting [9]); at least 200 µM in data set [2] (setting [10]); 119 µM (≈ 541 µg/mL) in data set [2] (setting [11]); at least 200 µM in data set [2] (setting [12]). In addition, the solubility at 18 h in data set [2] (setting [13]) and in data set [2] (setting [14]) was at least 200 µM in each case. In addition, the IC50 (in general, the concentration that gives 50% inhibition) in data set [3] was determined as 0.042 nM. For the same molecule, the “Ratio hCT/hAmylin binding” value in data set [3] (setting [15]), in data set [3] (setting [16]), in data set [3] (setting [20]), in data set [3] (setting [21]), in data set [3] (setting [17]) and in data set [3] (setting [18]) was 51.8 throughout. In addition, the “Ratio hCT/hAmylin binding” value in data set [3] (setting [19]) was 51.8.

Take `CC[C@H](C)[C@H](NC(=O)[C@H](C)NC(=O)CNC(=O)[C@H](Cc1ccccc1)NC(=O)[C@H](CC(N)=O)NC(=O)[C@@H]1CCCN1C(=O)[C@H](CO)NC(=O)[C@H](CO)NC(=O)[C@H](Cc1c[nH]cn1)NC(=O)[C@H](CCCNC(=N)N)NC(=O)[C@H](CC(C)C)NC(=O)[C@H](Cc1ccccc1)NC(=O)[C@H](CC(N)=O)NC(=O)[C@H](C)NC(=O)[C@H](CC(C)C)NC(=O)[C@H](CCCNC(=N)N)NC(=O)[C@H](CCC(N)=O)NC(=O)[C@@H](NC(=O)[C@H](C)NC(=O)[C@@H]1CSSC[C@H](NC(=O)[C@@H](N)CCCCNC(=O)CC[C@H](NC(=O)CCCCCCCCCCCCCCCCCCC(=O)O)C(=O)O)C(=O)N[C@@H](CC(N)=O)C(=O)N[C@@H]([C@@H](C)O)C(=O)N[C@@H](C)C(=O)N[C@@H]([C@@H](C)O)C(=O)N1)[C@@H](C)O)C(=O)N1CCC[C@H]1C(=O)N[C@@H](CO)C(=O)N[C@@H](CO)C(=O)N[C@H](C(=O)N[C@@H](CC(N)=O)C(=O)N[C@H](C(=O)NCC(=O)N[C@@H](CCCNC(=N)N)C(=O)N[C@@H](CC(N)=O)C(=O)N[C@H](C(=O)N[C@@H](Cc1ccc(O)cc1)C(N)=O)[C@@H](C)O)C(C)C)[C@@H](C)O` [Example 79] (H-K([γGlu-C20 diacid])CNTATCATQRLANFLRHSSPNFGAIPSSTNVGRNTY-NH2; disulfide 2-7 (inferred); N-terminus assumed): the “Ratio hCT/hAmylin funct.” value in data set [1] (setting [4]), in data set [1] (setting [5]) and in data set [1] (setting [6]) was 24.5 throughout. In addition, the EC50 in data set [1] was determined as 0.161 nM. In addition, the solubility at 18 h in data set [2] (setting [7]), in data set [2] (setting [8]), in data set [2] (setting [9]), in data set [2] (setting [10]), in data set [2] (setting [11]) and in data set [2] (setting [12]) was at least 200 µM in each case. Further, the solubility at 18 h in data set [2] (setting [13]) and in data set [2] (setting [14]) was at least 200 µM throughout. Moreover, the IC50 in data set [3] is 0.79 nM. Moreover, the “Ratio hCT/hAmylin binding” value in data set [3] (setting [15]), in data set [3] (setting [16]), in data set [3] (setting [20]), in data set [3] (setting [21]), in data set [3] (setting [17]) and in data set [3] (setting [18]) was 46.1 in each case. Further, in data set [3] (setting [19]), the “Ratio hCT/hAmylin binding” value turned out to be 46.1.
